{"source": "patent US20060171971A1", "about": "“Composition for wet wipes containing a non-irritating skin health benefit ingredient and the process for making” (The Procter & Gamble Company, priority 2005, published 2006)", "key": {"[1]": {"tested_on": "IL-1α", "experiment": "Epiderm culture assay with quantification of IL-1α (test sample mixed with IIBM)", "assay_type": "cell-based, human", "details": "16 hours", "text": "(§1) Epiderm Culture Assay With Quantification of IL-1α and Viability\n(§2) In order to evaluate the efficacy of the materials and embodiments of the present invention, a bio-engineered human skin construct is used to model the response of normal human epidermis. The EPIDERM™ skin model (as available from MatTek Corporation, Ashland, Mass.) is a three-dimensional, cornified, air-interfaced culture system. Each EPIDERM™ culture has multiple layers of progressively differentiated keratinocytes, closely resembling human epidermis. EPIDERM™ EPI-200-hydrocortisone-free (hereinafter EPI-200-HCF) cultures are used because these cultures show a strong inflammatory response to irritants. Cultures are incubated in medium that is also hydrocortisone-free (EPI-100-MM-HCF). All work with the cultures is carried out under sterile conditions in a biological safety cabinet.\n(§3) Experiments using the EPI-200-HCF cultures are conducted in six-well plates supplied with the cultures. Each well of the plate is filled with 900 microliters of pre-warmed EPI-100-MM-HCF medium, and then one EPI-200-HCF culture insert (shipped in 24-well format) is carefully transferred into the center of each well such that no air bubbles are trapped underneath the insert. After all of the culture inserts are transferred, the six-well plates are incubated in a 37° C., 5% CO2 tissue culture incubator for at least two hours.\n(§4) During the time the cultures are acclimating, the controls and test samples to be applied to the cultures are prepared. Sufficient material is prepared such that quadruplicate cultures can be dosed with about 100 microliters of the control or test sample. Throughout this section, the word “water” refers to autoclaved, Milli-Q water.\n(§5) For each experiment, three controls are run. The first control is water. The second control is a freshly-made solution of 0.125% Triton-X-100 in water, prepared by diluting the 1% Triton-X-100 stock solution shipped with the EPIDERM™ cultures. The third control is infant irritating bowel movement (hereinafter IIBM). IIBM is prepared as described in the PREPARATION OF INFANT […] method of the TEST METHODS section. At the time of use, the required number of tubes of IIBM are thawed at room temperature and 250 microliter aliquots are dispensed into 1.5 ml polypropylene microfuge tubes using a positive displacement pipettor. To each microfuge tube is then added 10 microliters of a 1 N NaOH solution to raise the pH and ensure activity of the fecal enzymes. For the IIBM control, an additional 250 microliters of water is added, and the tube is mixed thoroughly using a vortex mixer.\n(§6) For preparation of the test samples, a suspension in water of the material to be tested is first prepared. As an example, a 1% suspension of zinc oxide in water is prepared by weighing out 0.1 grams of zinc oxide into a 15 ml polypropylene tube (such as Cat No. 21008-935 from VWR) and adding sufficient water to bring the volume to 10 milliliters. Each suspension is vortexed thoroughly and allowed to sit for at least one hour at room temperature prior to use. To ascertain the irritancy of the test sample by itself, the neat suspension is applied to the EPIDERM™ culture. To ascertain the ability of the test sample to reduce the irritancy of IIBM, 250 microliters of the suspension is added to a microfuge tube already containing a 250 microliter aliquot of IIBM plus 10 microliters of 1 N NaOH (as prepared above). […]"}, "[2]": {"tested_on": "EPIDERM™ cultures", "experiment": "Epiderm culture viability, MTT assay", "assay_type": "cell-based, human", "details": "mixed with IIBM, 16 hours, normalized to water control", "text": "as §1, §2, §3, §4, §5, §6"}, "[3]": {"experiment": "Lability method (Zincon metallochromic dye colour change)", "assay_type": "physicochemical", "details": "30 mg/10 ml water, pH 7-9, Zincon dye", "text": "Particulate zinc materials differ with respect to how strongly the zinc ion (Zn^2+) is held by the counterion or counterions. […] To determine which particulate zinc materials provide labile Zn^2+, a test is developed using a metallochromic dye that changes color upon coordinating Zn 2+. The response is a binary visual assessment of whether or not the color changes, indicating zinc-binding.\nThe method is based on the commercial metallochromic dye Zincon sodium salt (2-carboxy-2′-hydroxy-5′-sulfoformazyl-benzene sodium salt, such as Cat. No. 201332 available from Sigma-Aldrich, St. Louis, Mo.). Zincon changes from an orange to blue color upon binding zinc ion and provides the basis for detecting available Zn 2+. The specific procedure involves making a stock solution of Zincon in ethanol (50 mg/10 ml ethanol). The particulate zinc material is then added to water (30 mg/10 ml water) and agitated vigorously (pH should be 7-9). Three to four drops of Zincon solution are then added to the particulate zinc material in water, agitated, and a visual assessment of color change made."}}, "note": "“And” between values parts separate entries of the source, which are not always exact repeats. Equal entries are not always repeated.", "data": [{"molecule": "[O]=[Zn]", "note": "[Zinc Oxide, zinc oxide]", "values": [{"measurement": "Mean % IL-1α Reduction", "setting": "[1]; zinc oxide 31 mM (0.25% w/w)", "result": 68, "unit": "%"}, {"measurement": "Mean % IL-1α Reduction", "setting": "[1]; zinc oxide 63 mM (0.5% w/w)", "result": 76, "unit": "%"}, {"measurement": "Mean % IL-1α Reduction", "setting": "[1]; zinc oxide 125 mM (1.0% w/w)", "result": 90, "unit": "%"}, {"measurement": "Normalized EPIDERM Viability", "setting": "[2]; zinc oxide 31 mM (0.25% w/w)", "result": 95, "unit": "%"}, {"measurement": "Normalized EPIDERM Viability", "setting": "[2]; zinc oxide 63 mM (0.5% w/w)", "result": 95, "unit": "%"}, {"measurement": "Normalized EPIDERM Viability", "setting": "[2]; zinc oxide 125 mM (1.0% w/w)", "result": 96, "unit": "%"}, {"measurement": "available (labile) Zn2+, binary visual assessment of colour change", "setting": "[3]", "result": "having available Zn^2+"}]}, {"molecule": "O=S(=O)([O-])[O-].[Zn+2]", "note": "[Zinc Sulfate, zinc sulfate]", "values": [{"measurement": "Mean % IL-1α Reduction", "setting": "[1]; zinc sulfate 87 mM (2.5% w/w)", "result": "99% and 98%"}, {"measurement": "Mean % IL-1α Reduction", "setting": "[1]; zinc sulfate 174 mM (5.0% w/w)", "result": "98% and 99%"}, {"measurement": "Normalized EPIDERM Viability", "setting": "[2]; zinc sulfate 87 mM (2.5% w/w)", "result": "44% and 28%"}, {"measurement": "Normalized EPIDERM Viability", "setting": "[2]; zinc sulfate 174 mM (5.0% w/w)", "result": "14% and 11%"}]}, {"molecule": "zinc stearate", "values": [{"measurement": "available (labile) Zn2+, binary visual assessment of colour change", "setting": "[3]", "result": "having available Zn^2+"}]}, {"molecule": "OCC(O)CO.[Zn]", "note": "[zinc monoglycerolate]", "values": [{"measurement": "available (labile) Zn2+, binary visual assessment of colour change", "setting": "[3]", "result": "having available Zn^2+"}]}, {"molecule": "O=C([O-])[O-].[Zn+2]", "note": "[zinc carbonate]", "values": [{"measurement": "available (labile) Zn2+, binary visual assessment of colour change", "setting": "[3]", "result": "having available Zn^2+"}]}]}
